Data: US7371372B2, “Compositions comprising IMPDH inhibitors and uses thereof for treating HCV infection” (Vertex Pharmaceuticals Incorporated, priority 2004, dated 2008)
≈ marks a conversion by molar mass, not a printed value. Where two headings read alike, the source gives them in different places. Marks after values point to notes of the source that are not given here.

Experiments:
[1] = cited from earlier work; for Cmin: estimated from Brunet et al.
IMPDH = conditions: estimated from Brunet et al.; cited from earlier work
[2] = anti-viral activity (IC50av); type: cell-based; conditions: for IC50: read-out: IC50av
Excerpt: The ratio of IC50av/IC50ap is the Conversion Factor (“CV”), useful in converting an anti-proliferative response into an anti-viral response.

[3] = system: peripheral blood lymphocytes (PBLs); assay: anti-proliferative activity (IC50ap): inhibition of proliferation of peripheral blood lymphocytes; type: cell-based; conditions: for IC50: Lymphocyte
Excerpt: Our algorithm predicts that there exists an optimal balance between the antiproliferative activity and the antiviral activity for ribavirin in combination with IFN. […] Per our algorithm described above, a “conversion factor” of 12.25 needs to be applied to the APQ to account for antiviral effects as distinct from the antiproliferative effects of ribavirin. Thus the corrected APQ (i.e. AAQ) for ribavirin ranges from 0.3 to 1.6.

HCV [4] = conditions: 1000 mg BID with PEGASYS, cited from earlier work
HCV [5] = conditions: cited from earlier work; for sustained response (SR): IFN + ribavirin, two phase III trials; for HCV RNA drop: Ribavirin 600 mg BID with INTRON A, SR data from McHutchison and Poynard (1999)
[6] = plasma concentrations Cavg and Cmin of the IMPDH inhibitor in human; type: in vivo
Excerpt: An optimal composition according to the present invention comprises alpha-interferon or a derivative thereof, an IMPDH inhibitor and a pharmaceutical carrier, wherein said IMPDH inhibitor is present in said composition in an amount such that a ratio of Cavg/Cmin is between 1 to 10; • wherein: • Cavg is average steady-state plasma concentration produced by said IMPDH inhibitor in said human; and • Cmin is estimated trough concentration produced by said IMPDH inhibitor in said human.
Cavg is equal to AUC/T, wherein AUC is the area under the plasma concentration-time curve during a dosing interval of time T. Cavg and Cmin are readily determined by known techniques in the art. See, e.g., Gibaldi, M. and Perrier, D., Pharmacokinetics, 2nd Ed., Marcel Dekker, Inc. (1982); Khakoo, S. et al., Br. J. Clin. Pharmacol.46, pp. 563-570 (1998); Glue, P., Sem. Liver. Dis. 19, pp. 17-24 (1999).

HCV [7] = assay: Interferon alpha 2b (INTRON A) and VX-497 in naive HCV patients, four week study (VX-497-003); type: in vivo, human; conditions: for % HCV RNA drop: genotype 1 naive patients
Excerpt: Given the lower FQ for RBV in table 2 above, once again a surprising result of lower FQ giving better antiviral effects is seen.

[8] = Ribavirin 200 mg BID, estimated from literature kinetics
[9] = Ribavirin 400 mg BID, estimated from literature kinetics

Compound: COc1c(C)c2c(c(O)c1C/C=C(\C)CCC(=O)O)C(=O)OC2 [MPA, mycophenolic acid]
- Cmin ([1]; MPA 500 mg BID): 1630 ng/mL
- Cavg ([1]; MPA 500 mg BID, from Brunet et al.): 3163 ng/mL
- Cmin ([1]; MPA 750 mg BID): 1400 ng/mL
- Cavg ([1]; MPA 750 mg BID, from Brunet et al.): 3425 ng/mL
- Cmin ([1]; MPA 1000 mg BID): 2060 ng/mL
- Cavg ([1]; MPA 1000 mg BID, median AUC(0-t)/dosing interval from Brunet et al.): 3869 ng/mL
- IC50ap (ng/mL) in vivo (IMPDH): 10800 ng/mL (≈ 33.7 µM)
- IC50 ([2]; anti-viral activity, micromolar IC50 converted to ng/mL using molecular weight of 320): 0.122 µg/mL (≈ 0.381 µM)
- IC50 ([3]; in vitro, read-out: IC50ap (ng/mL) in vitro): 32 ng/mL
- % HCV RNA drop (HCV [4]; non-responders to REBETRON with 90% genotype 1 patients): 31^a, %
- % HCV RNA drop (HCV [4]; relapsers on REBETRON with 79% genotype 1 patients): 72^b %

Compound: NC(=O)c1ncn([C@@H]2O[C@H](CO)[C@@H](O)[C@H]2O)n1 [Ribavirin, ribavirin]
- IC50 [2]: 12 µg/mL (≈ 49 µM)
- IC50 ([3]; read-out: IC50ap): 976 ng/mL
- sustained response (SR) (HCV [5]; genotype 1 patients): around 30%
- sustained response (SR) (HCV [5]; non-genotype 1 patients): ~60%
- hemolytic anemia (HCV [5]; MTD of ribavirin): significant hemolytic anemia
- HCV RNA drop (HCV [5]; genotype 1): 30%^a,
- HCV RNA drop (HCV [5]; non-genotype 1): 60%^b
- change in SR on dropping the ribavirin dose by one-half (HCV [5]; to 600 mg daily, with IFN): no significant change in SR
- Cavg [6, 8]: 3542 ng/mL
- Cmin [6, 8]: 740 ng/mL
- Cavg [6, 9]: 7083 ng/mL
- Cmin [6, 9]: 1450 ng/mL
- Cmin ([6]; Ribavirin 600 mg BID, estimated from literature kinetics): 2250 ng/mL
- Cavg ([6]; Ribavirin 600 mg BID, estimated from single dose kinetics (Glue) and accumulation factor (Khakoo), AUC(0-t)/dosing interval): 19000 ng/mL

Compound: COc1cc(NC(=O)Nc2cccc(CNC(=O)O[C@H]3CCOC3)c2)ccc1-c1cnco1 [VX-497]
- % HCV RNA drop (HCV [7]; VX-497 100 mg TID with INTRON A for 4 weeks): 53%
- % HCV RNA drop (HCV [7]; VX-497 300 mg TID with INTRON A for 4 weeks): 50%
- reduction in viral load, 100 mg TID compared with 300 mg TID (HCV [7]; with 3 MU IFN alpha 2b tiw, four weeks, baseline HCV RNA as covariate): higher reduction in viral load
- IC50av ([2]; anti-viral activity, micromolar IC50 converted to ng/mL using molecular weight 452): 140 ng/mL (≈ 0.309 µM)
- IC50ap [3]: 45 ng/mL

Compound: COc1c(C)c2c(c(O)c1C/C=C(\C)CCC(=O)OCCN1CCOCC1)C(=O)OC2 [mycophenolate mofetil]
- proportion of patients achieving significant antiviral effects, compared to PEGASYS and RBV (HCV [4]; four-week analysis): lower proportion of patients achieving significant antiviral effects
